Measured values published in paper PMC2852483 (Molecular cancer therapeutics, 2010).
Numbered stars: 1 amine (or outer) side, 2 acyl side, 3 side chain; on linkers, the order of the positions; unused ones are H or OH. Square brackets hold non-standard residues; d marks the D form. Side chains are listed from the residue outwards. Peptide text beside a SMILES is read from it. * marks the point of attachment. NOTA(2S-Bn(4-NHCS)) = O=C(O)CN1CCN(CC(=O)O)C[C@H](Cc2ccc(NC(=S)*)cc2)N(CC(=O)O)CC1; NH(2-(imidazol-4-yl)ethyl) = c1ncc(CCN*)[nH]1; Suc = O=C(CCC(=O)[*:2])[*:1]

What was measured:
[1] = system: s.c. CEA-expressing LS174T tumor; parameters: species or system nude BALB/c mice; details: mouse
[2] = parameters: species or system nude BALB/c mice; details: mouse, in vivo, 5 MBq

stability in vivo [1] | tumor uptake in non-pretargeted mice ([1]; in vivo) [% ID/g] | tissue uptake [2] [%ID/g] | Compound
stable in vivo | 0.45 ± 0.38 |  | C[C@@H](NC(=S)Nc1ccc(C[C@H]2CN(CC(=O)O)CCN(CC(=O)O)CCN2CC(=O)O)cc1)C(=O)N[C@H](CCCCNC(=O)CNC(=O)CCC(=O)NCCc1c[nH]cn1)C(=O)N[C@H](Cc1ccc(O)cc1)C(=O)N[C@H](CCCCNC(=O)CNC(=O)CCC(=O)NCCc1c[nH]cn1)C(N)=O [^18F-IMP-449] ({NOTA(2S-Bn(4-NHCS))}-[dA][dK]([Gly-Suc-NH(2-(imidazol-4-yl)ethyl)])[dY][dK]([Gly-Suc-NH(2-(imidazol-4-yl)ethyl)])-NH2; N-terminus and C-terminus assumed)
 |  | 0.54 ± 0.2 | C[C@@H](NC(=S)Nc1ccc(C[C@H]2CN(CC(=O)O)CCN(CC(=O)O)CCN2CC(=O)O)cc1)C(=O)N[C@H](CCCCNC(=O)CNC(=O)CCC(=O)NCCc1c[nH]cn1)C(=O)N[C@H](Cc1ccc(O)cc1)C(=O)N[C@H](CCCCNC(=O)CNC(=O)CCC(=O)NCCc1c[nH]cn1)C(N)=O [IMP-449] ({NOTA(2S-Bn(4-NHCS))}-[dA][dK]([Gly-Suc-NH(2-(imidazol-4-yl)ethyl)])[dY][dK]([Gly-Suc-NH(2-(imidazol-4-yl)ethyl)])-NH2; N-terminus and C-terminus assumed)
